Assay results taken from patent US9670211B2, “Aza-oxo-indoles for the treatment and prophylaxis of respiratory syncytial virus infection” (Hoffmann-La Roche Inc., priority 2013, dated 2017).

Tested on: RSV Long strain
Assay: Viral Cytopathic Effect (CPE) Assay
Assay type: cell-based
Conditions: human respiratory syncytial virus, 144 h; RSV Long strain (ATCC), cell viability after 6 days by Cell Counting kit-8
Experimental: Viral Cytopathic Effect (CPE) Assay
To measure anti-RSV activity of compounds, 96-well plates are seeded with 6×10^3 cells per well in Dulbecco's modified Eagle's medium (DMEM) containing 10% fetal bovine serum (FBS). Cells are infected the next day with sufficient RSV Long strain (ATCC) to produce an approximately 80-90% cytopathic effect after 6 days, in the presence of serial half-log diluted compound in a total volume of 200 μL per well. The viability of cells is assessed after 6 days using Cell Counting kit-8 (Dojindo Molecular Technologies). The absorbance at 450 nm and referenced at 630 nm is measured to determine 50% effective concentration (EC50).

| SMILES | EC50 [nM] |
| --- | --- |
| CS(=O)(=O)[C@H]1C[C@H](n2c(CN3C(=O)C4(CC4)c4ccncc43)nc3cc(Cl)ccc32)C1 [Example 1-2, 1′-({5-Chloro-1-[trans-3-(methylsulfonyl)cyclobutyl]-1H-benzimidazol-2-yl}methyl)spiro[cyclopropane-1,3′-pyrrolo[2,3-c]pyridin]-2′(1′H)-one] | 6 |
| O=C1N(Cc2nc3cc(Cl)ccc3n2C2CCCC2)c2cnccc2C12CC2 [Example 2-3, 1′-[(5-Chloro-1-cyclopentyl-1H-benzimidazol-2-yl)methyl]spiro[cyclopropane-1,3′-pyrrolo[2,3-c]pyridin]-2′(1′H)-one] | 32 |
| O=C1N(Cc2nc3cc(Cl)ccc3n2C2CCOCC2)c2cnccc2C12CC2 [Example 2-6, 1′-{[5-Chloro-1-(tetrahydro-2H-pyran-4-yl)-1H-benzimidazol-2-yl]methyl}spiro[cyclopropane-1,3′-pyrrolo[2,3-c]pyridin]-2′(1′H)-one] | 23 |
| O=C1N(Cc2nc3cc(Cl)ccc3n2[C@H]2C[C@@H](O)C2)c2cnccc2C12CC2 [Example 14-1, 1′-{[5-Chloro-1-(cis-3-hydroxycyclobutyl)-1H-benzimidazol-2-yl]methyl}spiro[cyclopropane-1,3′-pyrrolo[2,3-c]pyridin]-2′(1′H)-one] | 7 |
| CC1(C)C(=O)N(Cc2nc3cc(Cl)ccc3n2C2CS(=O)(=O)C2)c2cnccc21 [Example 4-2, 1-{[5-Chloro-1-(1,1-dioxidothietan-3-yl)-1H-benzimidazol-2-yl]methyl}-3,3-dimethyl-1,3-dihydro-2H-pyrrolo[2,3-c]pyridin-2-one] | 95 |
| O=C1N(Cc2nc3cc(Cl)ccc3n2C2CS(=O)(=O)C2)c2cnccc2C12CC2 [Example 4-1, 1′-{[5-Chloro-1-(1,1-dioxidothietan-3-yl)-1H-benzimidazol-2-yl]methyl}spiro[cyclopropane-1,3′-pyrrolo[2,3-c]pyridin]-2′(1′H)-one] | 6.5 |
| O=C1N(Cc2nc3cc(Cl)ccc3n2C2CC3(C2)CS(=O)(=O)C3)c2cnccc2C12CC2 [Example 2-1, 1′-{[5-Chloro-1-(2,2-dioxido-2-thiaspiro[3.3]hept-6-yl)-1H-benzimidazol-2-yl]methyl}spiro[cyclopropane-1,3′-pyrrolo[2,3-c]pyridin]-2′(1′H)-one] | 4 |
| O=C1N(Cc2nc3cc(Cl)ccc3n2C2CCS(=O)(=O)C2)c2cnccc2C12CC2 (centres unmarked) [Example 3-1, 1′-{[5-Chloro-1-(1,1-dioxidotetrahydrothiophen-3-yl)-1H-benzimidazol-2-yl]methyl}spiro[cyclopropane-1,3′-pyrrolo[2,3-c]pyridin]-2′(1′H)-one] | 6 |
| CS(=O)(=O)N1CC(n2c(CN3C(=O)C4(CC4)c4ccncc43)nc3cc(Cl)ccc32)C1 [Example 12, 1′-({5-Chloro-1-[1-(methylsulfonyl)azetidin-3-yl]-1H-benzimidazol-2-yl}methyl)spiro[cyclopropane-1,3′-pyrrolo[2,3-c]pyridin]-2′(1′H)-one] | 1.8 |
| O=C1N(Cc2nc3cc(Cl)ccc3n2C2CNC2)c2cnccc2C12CC2 [Example 10-2, 1′-{[1-(Azetidin-3-yl)-5-chloro-1H-benzimidazol-2-yl]methyl}spiro[cyclopropane-1,3′-pyrrolo[2,3-c]pyridin]-2′(1′H)-one] | 138 |
| O=C1N(Cc2nc3cc(Cl)ccc3n2C2COC2)c2cnccc2C12CC2 [Example 2-4, 1′-{[5-Chloro-1-(oxetan-3-yl)-1H-benzimidazol-2-yl]methyl}spiro[cyclopropane-1,3′-pyrrolo[2,3-c]pyridin]-2′(1′H)-one] | 70 |
| O=C1N(Cc2cc3cc(Cl)cc(F)c3n2C2CCS(=O)(=O)C2)c2cnccc2C12CC2 (centres unmarked) [Example 17, 1′-{[5-Chloro-1-(1,1-dioxidotetrahydrothiophen-3-yl)-7-fluoro-1H-indol-2-yl]methyl}spiro[cyclopropane-1,3′-pyrrolo[2,3-c]pyridin]-2′(1′H)-one] | 0.6 |
| O=C1N(Cc2nc3cc(Cl)cc(F)c3n2[C@@H]2CCS(=O)(=O)C2)c2cnccc2C12CC2 [Example 9-2, 1′-({5-Chloro-1-[(3R)-1,1-dioxidotetrahydrothiophen-3-yl]-7-fluoro-1H-benzimidazol-2-yl}methyl)spiro[cyclopropane-1,3′-pyrrolo[2,3-c]pyridin]-2′(1′H)-one] | 0.7 |
| CC1(C)[C@H](n2c(CN3C(=O)C4(CC4)c4ccncc43)nc3cc(Cl)ccc32)CCS1(=O)=O (stereo in doubt) [Example 13, 1′-{[5-Chloro-1-(2,2-dimethyl-1,1-dioxidotetrahydrothiophen-3-yl)-1H-benzimidazol-2-yl]methyl}spiro[cyclopropane-1,3′-pyrrolo[2,3-c]pyridin]-2′(1′H)-one] | 397 |
| CC(C)(C)OC(=O)N1CCC(n2c(CN3C(=O)C4(CC4)c4ccncc43)nc3cc(Cl)ccc32)C1 (centres unmarked) [Example 2-15, tert-Butyl 3-{5-chloro-2-[(2′-oxospiro[cyclopropane-1,3′-pyrrolo[2,3-c]pyridin]-1′(2′H)-yl)methyl]-1H-benzimidazol-1-yl}pyrrolidine-1-carboxylate] | 31 |
| O=C1N(Cc2nc3cc(Cl)ccc3n2[C@@H]2CCS(=O)(=O)C2)c2cnccc2C12CC2 [Example 3-3, 1′-({5-Chloro-1-[(3R)-1,1-dioxidotetrahydrothiophen-3-yl]-1H-benzimidazol-2-yl}methyl)spiro[cyclopropane-1,3′-pyrrolo[2,3-c]pyridin]-2′(1′H)-one] | 1.6 |
| CCN1CC(n2c(CN3C(=O)C4(CC4)c4ccncc43)nc3cc(Cl)ccc32)CC1=O (centres unmarked) [Example 8-2, 1′-{[5-Chloro-1-(1-ethyl-5-oxopyrrolidin-3-yl)-1H-benzimidazol-2-yl]methyl}spiro[cyclopropane-1,3′-pyrrolo[2,3-c]pyridin]-2′(1′H)-one] | 1.1 |
| O=C1N(Cc2nc3cc(Cl)ccc3n2[C@H]2C[C@H](O)C2)c2cnccc2C12CC2 [Example 14-2, 1′-{[5-Chloro-1-(trans-3-hydroxycyclobutyl)-1H-benzimidazol-2-yl]methyl}spiro[cyclopropane-1,3′-pyrrolo[2,3-c]pyridin]-2′(1′H)-one] | 0.8 |
| O=C1N(Cc2nc3cc(Cl)cc(F)c3n2C2CS(=O)(=O)C2)c2cnccc2C12CC2 [Example 6, 1′-{[5-Chloro-1-(1,1-dioxidothietan-3-yl)-7-fluoro-1H-benzimidazol-2-yl]methyl}spiro[cyclopropane-1,3′-pyrrolo[2,3-c]pyridin]-2′(1′H)-one] | 0.9 |
| O=C1N(Cc2nc3cc(Cl)ccc3n2C2CCC(O)CC2)c2cnccc2C12CC2 (centres unmarked) [Example 2-7, 1′-{[5-Chloro-1-(4-hydroxycyclohexyl)-1H-benzimidazol-2-yl]methyl}spiro[cyclopropane-1,3′-pyrrolo[2,3-c]pyridin]-2′(1′H)-one] | 1.1 |
| CCC1(CC)C(=O)N(Cc2nc3cc(Cl)ccc3n2C2CS(=O)(=O)C2)c2cnccc21 [Example 4-3, 1-{[5-Chloro-1-(1,1-dioxidothietan-3-yl)-1H-benzimidazol-2-yl]methyl}-3,3-diethyl-1,3-dihydro-2H-pyrrolo[2,3-c]pyridin-2-one] | 207 |
| O=C1N(Cc2nc3cc(Cl)ccc3n2C2CNC3(COC3)C2)c2cnccc2C12CC2 (centres unmarked) [Example 16, 1′-{[5-Chloro-1-(2-oxa-5-azaspiro[3.4]oct-7-yl)-1H-benzimidazol-2-yl]methyl}spiro[cyclopropane-1,3′-pyrrolo[2,3-c]pyridin]-2′(1′H)-one] | 2.2 |
| O=C1N(Cc2nc3cc(Cl)ccc3n2C2C[S+]([O-])C2)c2cnccc2C12CC2 (centres unmarked) [Example 5, 1′-{[5-Chloro-1-(1-oxidothietan-3-yl)-1H-benzimidazol-2-yl]methyl}spiro[cyclopropane-1,3′-pyrrolo[2,3-c]pyridin]-2′(1′H)-one] | 5 |
| O=C1N(Cc2nc3cc(Cl)cnc3n2C2CCS(=O)(=O)C2)c2cnccc2C12CC2 (centres unmarked) [Example 2-13, 1′-{[6-Chloro-3-(1,1-dioxidotetrahydrothiophen-3-yl)-3H-imidazo[4,5-b]pyridin-2-yl]methyl}spiro[cyclopropane-1,3′-pyrrolo[2,3-c]pyridin]-2′(1′H)-one] | 15 |
| O=C1N(Cc2nc3cc(Cl)cc(F)c3n2[C@H]2CCS(=O)(=O)C2)c2cnccc2C12CC2 [Example 9-1, 1′-({5-Chloro-1-[(3S)-1,1-dioxidotetrahydrothiophen-3-yl]-7-fluoro-1H-benzimidazol-2-yl}methyl)spiro[cyclopropane-1,3′-pyrrolo[2,3-c]pyridin]-2′(1′H)-one] | 13 |
| O=C1N(Cc2nc3cc(Cl)ccc3n2C2CNS(=O)(=O)C2)c2cnccc2C12CC2 (centres unmarked) [Example 15, 1′-{[5-Chloro-1-(1,1-dioxido-1,2-thiazolidin-4-yl)-1H-benzimidazol-2-yl]methyl}spiro[cyclopropane-1,3′-pyrrolo[2,3-c]pyridin]-2′(1′H)-one] | 1.6 |
| O=C1N(Cc2cc3cc(Cl)cnc3n2C2CCS(=O)(=O)C2)c2cnccc2C12CC2 (centres unmarked) [Example 19, 1′-{[5-Chloro-1-(1,1-dioxidotetrahydrothiophen-3-yl)-1H-pyrrolo[2,3-b]pyridin-2-yl]methyl}spiro[cyclopropane-1,3′-pyrrolo[2,3-c]pyridin]-2′(1′H)-one] | 6 |
| O=C1N(Cc2nc3cc(Cl)ccc3n2C(CO)CO)c2cnccc2C12CC2 [Example 2-16, 1′-{[5-Chloro-1-(1,3-dihydroxypropan-2-yl)-1H-benzimidazol-2-yl]methyl}spiro[cyclopropane-1,3′-pyrrolo[2,3-c]pyridin]-2′(1′H)-one] | 122 |
| O=C1N(Cc2nc3cc(Cl)ccc3n2[C@H]2CC[C@@H](C(=O)O)CC2)c2cnccc2C12CC2 [Example 2-12, cis-4-{5-Chloro-2-[(2′-oxospiro[cyclopropane-1,3′-pyrrolo[2,3-c]pyridin]-1′(2′H)-yl)methyl]-1H-benzimidazol-1-yl}cyclohexanecarboxylic acid] | 510 |
